Measurements as given in patent publication US20200009163A1, “POLYPHOSPHATES AS INHIBITORS OF CALCIUM CRYSTALLIZATION” (priority 2017, published 2020).

Columns and labels:
[1] = ISE (ion selective electrode) measurement of inhibition of COM crystallization from aqueous solution; settings: FIG. 3
From the text: FIG. 3 depicts experimental results obtained using an example of a LTPP compound (Na5P3O10) and an example of a HMP compound ((NaPO3)6) to inhibit crystallization of […] from aqueous solution. Results for a citrate compound (Na3C6H5O7), which is commonly used in the treatment of kidney stones, is presented for purposes of comparison. In FIG. 3, the x-axis represents a measure of concentration (micromolar (μM) concentration on a logarithmic scale) of the inhibitor present in the solution. The y-axis represents percent inhibition (% reduction in the rate of crystallization) of COM crystallization as compared to a control solution having no inhibitor compounds therein. The effect of the inhibitors on COM growth was estimated using ISE (ion selective electrode) measurements. This measurement technique enables quantification of the extent of inhibition on calcium crystal growth as a function of inhibitor concentration. More specifically, ISE measures free calcium concentration in solution as a function of time to measure the rate of crystallization in the absence and presence of inhibitor. This technique can be used to measure the effectiveness of the polyphosphates and polyphosphate derivatives at inhibiting or modifying calcium crystal growth. The values of “% inhibition” that were obtained by this technique, and presented in FIG. 3 for the different combinations of inhibitor type and concentration, reflect rates of crystallization that have been normalized with respect to the rate of crystallization for a control solution (e.g., inhibitor concentration of zero). The % inhibition refers to the averages of at least 3 separate experiments. The solutions tested were aqueous solutions of calcium chloride (CaCl2)), sodium oxalate (Na2C2O4), and sodium chloride (NaCl). The tested solutions further included the inhibitor/modifier compound at the stated concentration level.

[2] = Bulk calcium oxalate crystallization, optical microscope images and crystal frequency; settings: for calcium oxalate crystals observed (optical microscope): control crystals approximately 25-50 μm along c-axis
Procedure: FIG. 4A depicts optical microscope images showing results of calcium oxalate crystallization from a control solution and solutions including LTPP Na5P3O10 at concentrations of 5 μM and 15 μM. FIG. 4B depicts effects of Na5P3O10 concentrations on calcium oxalate crystal frequency. […] Crystals formed from the control solution were approximately 25-50 μm in size as measured along the c-axis, which is the longest dimension.
FIG. 5A depicts optical microscope images showing results of calcium oxalate crystallization from a control solution and solutions including HMP (NaPO3)6 at concentrations of 0.3 μM and 0.7 μM. FIG. 5B depicts effects of (NaPO3)6 concentrations on calcium oxalate crystal frequency. […] Crystals formed from the control solution were approximately 25-50 μm in size as measured along the c-axis, which is the longest dimension.
FIG. 6 depicts optical microscope images showing results of calcium oxalate crystallization during bulk studies at different concentrations of LTPP. The leftmost image is a representative control crystal.

O=C(O)CC(O)(CC(=O)O)C(=O)O [citrate, Na3C6H5O7, reference compound]
percent inhibition (% reduction in the rate of crystallization) of COM crystallization ([1]; inhibitor concentration of around 320 μM, maximum reached even at much higher concentrations): about 60%

Na5P3O10 [LTPP]
crystal morphology (habit) of calcium oxalate crystals ([2]; 5 μM and 15 μM inhibitor vs control crystal, FIG. 6): morphology of the crystals change with increasing inhibitor concentration | calcium oxalate crystals observed (optical microscope) ([2]; 15 μM inhibitor, FIG. 4A): very small crystals | calcium oxalate crystal frequency ([2]; higher LTPP solution concentrations (above 15 μM), FIG. 4B): no definitive crystals being observed | percent inhibition (% reduction in the rate of crystallization) of COM crystallization ([1]; inhibitor concentration range of about 5 μM to about 125 μM, vs control solution without inhibitor): 30-100%

(NaPO3)6 [HMP]
calcium oxalate crystals observed (optical microscope) ([2]; 0.7 μM inhibitor, FIG. 5A): Very small crystals | calcium oxalate crystal frequency ([2]; higher HMP solution concentrations (above 0.7 μM), FIG. 5B): no definitive crystals being observed | percent inhibition (% reduction in the rate of crystallization) of COM crystallization ([1]; inhibitor concentration of less than about 1 μM, vs control solution without inhibitor): approximately 100%
